From BindingDB's records for doi:10.1007/BF02244985 (Mayo Clinic, 1994)
Where a name gives a salt, the structure may show the parent alone.

Columns and labels:
[1] = target: T1, 5-hydroxytryptamine receptor 1A (Homo sapiens, UniProt P08908)
T1 sequence (P08908 whole entry): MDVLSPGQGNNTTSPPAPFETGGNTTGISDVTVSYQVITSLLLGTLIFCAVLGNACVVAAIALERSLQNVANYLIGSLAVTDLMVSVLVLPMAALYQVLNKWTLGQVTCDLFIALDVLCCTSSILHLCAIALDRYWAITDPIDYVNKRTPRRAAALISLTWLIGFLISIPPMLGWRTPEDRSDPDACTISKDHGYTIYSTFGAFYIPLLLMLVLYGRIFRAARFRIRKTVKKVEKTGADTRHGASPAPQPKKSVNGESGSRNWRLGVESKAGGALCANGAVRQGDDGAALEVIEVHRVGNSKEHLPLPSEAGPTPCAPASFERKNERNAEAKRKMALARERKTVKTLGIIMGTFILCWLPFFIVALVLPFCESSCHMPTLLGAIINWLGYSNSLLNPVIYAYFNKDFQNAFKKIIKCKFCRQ

D(2) dopamine receptor = D(2) dopamine receptor (Homo sapiens, UniProt P14416)
[2] = target: T2, Alpha-1A adrenergic receptor (Homo sapiens, UniProt P35348)
T2 sequence (P35348 whole entry): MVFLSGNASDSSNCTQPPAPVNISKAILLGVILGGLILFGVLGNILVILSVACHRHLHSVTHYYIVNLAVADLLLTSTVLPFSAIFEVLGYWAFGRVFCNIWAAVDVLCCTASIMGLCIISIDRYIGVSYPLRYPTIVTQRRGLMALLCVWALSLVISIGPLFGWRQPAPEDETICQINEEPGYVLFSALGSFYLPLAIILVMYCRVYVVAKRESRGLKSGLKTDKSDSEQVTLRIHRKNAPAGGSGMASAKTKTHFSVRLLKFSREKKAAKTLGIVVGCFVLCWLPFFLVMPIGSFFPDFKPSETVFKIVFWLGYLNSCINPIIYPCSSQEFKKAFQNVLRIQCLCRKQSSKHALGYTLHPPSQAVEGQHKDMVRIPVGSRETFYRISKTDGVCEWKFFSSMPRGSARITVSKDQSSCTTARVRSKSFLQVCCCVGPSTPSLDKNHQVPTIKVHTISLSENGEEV

[3] = target: T3, Muscarinic acetylcholine receptor M2 (Homo sapiens, UniProt P08172)
T3 sequence (P08172 whole entry): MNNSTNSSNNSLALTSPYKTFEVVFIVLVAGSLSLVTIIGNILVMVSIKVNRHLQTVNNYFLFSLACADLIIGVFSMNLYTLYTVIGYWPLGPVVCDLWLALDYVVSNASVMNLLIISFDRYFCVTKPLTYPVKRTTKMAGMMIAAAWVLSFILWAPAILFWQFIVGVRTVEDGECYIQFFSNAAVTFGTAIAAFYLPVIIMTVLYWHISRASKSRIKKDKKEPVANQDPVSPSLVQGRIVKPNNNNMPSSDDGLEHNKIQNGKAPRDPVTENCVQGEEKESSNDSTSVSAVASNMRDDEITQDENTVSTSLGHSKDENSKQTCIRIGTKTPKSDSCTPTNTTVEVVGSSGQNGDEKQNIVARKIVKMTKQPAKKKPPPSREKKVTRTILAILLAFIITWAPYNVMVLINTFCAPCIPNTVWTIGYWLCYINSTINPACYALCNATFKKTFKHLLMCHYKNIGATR

[4] = target: T4, Alpha-2A adrenergic receptor (Homo sapiens, UniProt P08913)
T4 sequence (P08913 whole entry): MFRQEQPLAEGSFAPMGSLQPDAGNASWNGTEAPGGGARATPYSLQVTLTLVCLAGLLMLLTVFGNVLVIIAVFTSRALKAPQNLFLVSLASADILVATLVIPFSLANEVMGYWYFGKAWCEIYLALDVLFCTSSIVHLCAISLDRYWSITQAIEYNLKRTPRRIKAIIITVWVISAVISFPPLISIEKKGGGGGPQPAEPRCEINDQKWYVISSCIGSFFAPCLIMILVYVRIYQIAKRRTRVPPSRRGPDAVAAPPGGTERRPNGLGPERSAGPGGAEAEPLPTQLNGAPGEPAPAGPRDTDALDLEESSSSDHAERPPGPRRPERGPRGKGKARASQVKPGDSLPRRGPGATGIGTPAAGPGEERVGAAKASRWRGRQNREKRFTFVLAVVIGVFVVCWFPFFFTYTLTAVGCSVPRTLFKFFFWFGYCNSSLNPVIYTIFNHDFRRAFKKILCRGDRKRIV

Sequence of D(2) dopamine receptor (P14416 whole entry): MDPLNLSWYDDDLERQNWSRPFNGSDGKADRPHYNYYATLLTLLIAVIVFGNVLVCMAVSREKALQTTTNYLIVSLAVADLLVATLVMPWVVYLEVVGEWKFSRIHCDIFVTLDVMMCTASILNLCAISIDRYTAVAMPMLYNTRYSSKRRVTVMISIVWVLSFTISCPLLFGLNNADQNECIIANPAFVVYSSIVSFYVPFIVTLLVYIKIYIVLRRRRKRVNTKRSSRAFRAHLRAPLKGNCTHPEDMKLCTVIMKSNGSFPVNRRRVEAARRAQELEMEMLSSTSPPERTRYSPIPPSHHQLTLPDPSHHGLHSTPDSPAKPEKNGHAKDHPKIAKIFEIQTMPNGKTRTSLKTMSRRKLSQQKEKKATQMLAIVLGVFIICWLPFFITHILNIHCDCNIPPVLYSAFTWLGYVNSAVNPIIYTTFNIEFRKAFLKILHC

SMILES	Ki [1] [nM]	Ki (D(2) dopamine receptor) [nM]	Ki [2] [nM]	Ki [3] [nM]	Ki [4] [nM]
COc1ccc(OC[C@H]2CN(C)CC[C@@H]2c2ccccc2)cc1 [(3R,4S)-3-(4-Methoxy-phenoxymethyl)-1-methyl-4-phenyl-piperidine]	2290	590	650	184	1970
Fc1ccc([C@@H]2CCNC[C@H]2COc2ccc3c(c2)OCO3)cc1 [PAROXETINE]	> 10000	> 10000			
CN(CCCN1c2ccccc2CCc2ccccc21)CC(=O)c1ccc(Cl)cc1 [CAS_23047-25-8]	4600	2000	100	67	2700
CC(NC(C)(C)C)C(=O)c1cccc(Cl)c1 (stereo not given) [BUPROPION HYDROCHLORIDE]	> 10000	> 10000	4200	> 10000	> 10000
CN(C)CCC=C1c2ccccc2CCc2ccccc21	450	1460	24		690
CN(C)CC/C=C1/c2ccccc2COc2ccccc21		360			
CCc1nn(CCCN2CCN(c3cccc(Cl)c3)CC2)c(=O)n1CCOc1ccccc1 [2-{3-[4-(3-chlorophenyl)piperazin-1-yl]propyl}-5-ethyl-4-(2-phenoxyethyl)-2,4-dihydro-3H-1,2,4-triazol-3-one]	80	910	48		
NCC[C@H](Oc1ccc(C(F)(F)F)cc1)c1ccccc1 [NORFLUOXETINE]	> 10000	> 10000	3900	810	> 10000
CN(C)Cc1nnc2n1-c1ccc(Cl)cc1C(c1ccccc1)=NC2 [NSC_37632]	> 10000	> 10000	> 10000	> 10000	> 10000
N[C@H]1CC[C@@H](c2ccc(Cl)c(Cl)c2)c2ccccc21	> 10000	> 10000	1200	1430	7800
CNCCCN1c2ccccc2CCc2ccccc21 [Desmethylimipramine]		3500			
CCc1nn(CCCN2CCN(c3cccc(Cl)c3)CC2)c(=O)n1CC [NSC_40589]	85	2300	38	> 10000	570
CN(C)CCCN1c2ccccc2CCc2ccccc21	5800	620	32	46	3100
COc1ccc(C(CN(C)C)C2(O)CCCCC2)cc1 (stereo not given) [NSC_62923]	> 10000	> 10000	> 10000	> 10000	> 10000
CN[C@@H]1CC[C@@H](c2ccc(Cl)c(Cl)c2)c2ccccc21 [[4-(3,4-Dichloro-phenyl)-1,2,3,4-tetrahydro-naphthalen-1-yl]-methyl-amine]	> 10000	> 10000	380	630	
CNCCC=C1c2ccccc2CCc2ccccc21 [NORTRIPTYLINE]	294	2570	55	37	
CNCCC(Oc1ccccc1C)c1ccccc1 (stereo not given) [Methyl-(3-phenyl-3-o-tolyloxy-propyl)-amine(tomoxetine)]			3800		
